Measurements from US8426447B2, “Spiro-tricyclic ring compounds as beta-secretase modulators and methods of use” (Amgen Inc., priority 2008, dated 2013).
Where “and” joins values, the source holds several entries; their conditions need not be identical. Equal entries are not always repeated. Values belong to the molecule of their own block, whether it stands above or below them.

What was measured:
BACE1 [1] = biological target: T1, BACE1 (Homo sapiens, UniProt P56817); assay: In Vitro Enzymatic BACE FRET (Fluorescence Resonance Energy Transfer) Assay; type: biochemical
How it was run: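 One-hour incubation initiated by 50 nM quenched FRET peptide spanning the BACE cleavage site, in 0.05 M acetate (pH 4.2), 100 uM genapol, 10% DMSO final. Tris addition neutralizes pH to end the reaction before fluorescence measurement.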

BACE1 [2] = biological target: T1, BACE1; assay: In Vitro BACE Cell-based Assay (HEK cell assay): Aβ40 in conditioned medium of cells stably expressing Amyloid Precursor Protein, sandwich ELISA
How it was run: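 Conditioned medium Aβ40 by ELISA: pAb40 capture 3 h 4° C., biotin-6E10 detection 2 h 4° C., Streptavidin-Europium TRF. IC50 fitted from % control.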

[3] = Table III, IC50's in uM ranges, read-out: BACE1 FRET assay
[4] = Table III, IC50's in uM ranges, read-out: HEK cell assay
[5] = Table II, read-out: BACE1 FRET assay
[6] = Table II, Aβ40, 24 h incubation, read-out: HEK cell assay
[7] = Table IV, class symbols, read-out: BACE1 FRET assay
[8] = Table IV, class symbols, read-out: HEK cell assay
[9] = in vitro BACE FRET enzyme assay, IC50 class symbols, read-out: BACE1 FRET assay
[10] = HEK cell-based assay, Aβ40 in conditioned medium, IC50 class symbols, read-out: HEK cell assay

T1 sequence (P56817 46-501, species assumed): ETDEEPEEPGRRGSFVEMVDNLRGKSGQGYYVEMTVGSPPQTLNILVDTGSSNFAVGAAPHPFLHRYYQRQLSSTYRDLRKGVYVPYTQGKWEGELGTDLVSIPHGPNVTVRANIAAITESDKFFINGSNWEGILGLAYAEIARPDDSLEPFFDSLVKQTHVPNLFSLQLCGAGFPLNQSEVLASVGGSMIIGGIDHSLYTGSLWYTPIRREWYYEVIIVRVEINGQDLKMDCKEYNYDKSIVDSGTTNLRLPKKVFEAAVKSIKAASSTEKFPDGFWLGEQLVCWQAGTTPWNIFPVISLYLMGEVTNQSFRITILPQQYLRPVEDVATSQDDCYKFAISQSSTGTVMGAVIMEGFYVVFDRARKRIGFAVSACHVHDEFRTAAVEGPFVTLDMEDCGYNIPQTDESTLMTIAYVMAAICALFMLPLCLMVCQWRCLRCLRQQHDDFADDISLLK

Compound: NC1=N[C@@]2(CO1)c1cc(-c3cccnc3)ccc1Oc1ncc(N3CCOCC3)cc12 [compound 539]
- IC50 (BACE1 [1]; [7]): < 0.1 µM
- IC50 (BACE1 [2]; [8]): < 0.1 µM

Compound: NC1=N[C@@]2(CO1)c1cc(C#CC3CC3)ccc1Oc1ncc(N3CCOCC3)cc12 [compound 607]
- IC50 (BACE1 [1]; [7]): < 0.1 µM
- IC50 (BACE1 [2]; [8]): < 0.1 µM

Compound: CC1(COc2cnc3c(c2)[C@]2(COC(N)=N2)c2cc(-c4cccc(F)c4F)ccc2O3)COC1 [compound 413]
- IC50 (BACE1 [1]; [9]): < 0.1 µM
- IC50 (BACE1 [2]; [10]): < 0.1 µM

Compound: NC1=N[C@@]2(CO1)c1cc(-c3cccnc3F)ccc1Oc1cnc(C3=CCCCO3)cc12 [compound 371]
- IC50 (BACE1 [1]; BACE1 FRET assay (uM)): < 0.1 µM
- IC50 (BACE1 [2]; HEK cell assay (uM)): < 0.1 µM

Compound: CC(C)(C)COc1ccc2c(c1)[C@]1(COC(N)=N1)c1cc(-c3cccnc3Cl)ccc1O2 [compound 913]
- IC50 (BACE1 [1]; [7]): < 0.1 µM
- IC50 (BACE1 [2]; [8]): 0.1 to 1 µM

Compound: NC1=N[C@@]2(CO1)c1cc(-c3cccnc3)ccc1Oc1cnc(-c3cccnc3)cc12 [compound 902]
- IC50 (BACE1 [1]; [7]): < 0.1 µM
- IC50 (BACE1 [2]; [8]): < 0.1 µM

Compound: NC1=N[C@@]2(CO1)c1cc(-c3cccnc3)ccc1Oc1ccc(-c3ccc(F)nc3)cc12 [compound 969]
- IC50 (BACE1 [1]; read-out: BACE1 FRET assay): < 0.1 µM
- IC50 (BACE1 [2]; read-out: HEK cell assay): < 0.1 µM

Compound: CC(C)OCCOc1ccc2c(c1)[C@]1(COC(N)=N1)c1cc(-c3cncnc3)ccc1O2 [compound 180]
- IC50 (BACE1 [1]; [3]): < 0.1 µM
- IC50 (BACE1 [2]; [4]): 0.1 to 1 µM

Compound: CC(C)(C)OC(=O)CCc1ccc2c(c1)[C@]1(COC(N)=N1)c1cc(-c3cncnc3)ccc1O2 [compound 826]
- IC50 (BACE1 [1]; [7]): 0.1 to 1 µM
- IC50 (BACE1 [2]; [8]): 1 to 5 µM

Compound: CC(C)(O)COc1ccc2c(c1)[C@]1(COC(N)=N1)c1cc(-c3cccnc3)ccc1O2 [Example 135, (S)-1-(2-amino-2′-(pyridin-3-yl)-5H-spiro[oxazole-4,9′-xanthene]-7′-yloxy)-2-methylpropan-2-ol]
- IC50 (BACE1 [1]; [3]): < 0.1 µM
- IC50 (BACE1 [2]; [4]): < 0.1 µM

Compound: CC(C)OC1CN(c2ccc3c(c2)[C@]2(COC(N)=N2)c2cc(-c4cccnc4)ccc2O3)C1 [compound 384]
- IC50 (BACE1 [1]; [9]): < 0.1 µM
- IC50 (BACE1 [2]; [10]): < 0.1 µM

Compound: COC(=O)/C=C/c1ccc2c(c1)[C@@]1(COC(N)=N1)c1cc(-c3cccnc3)ccc1O2 [compound 918]
- IC50 (BACE1 [1]; [7]): 0.1 to 1 µM
- IC50 (BACE1 [2]; [8]): 0.1 to 1 µM

Compound: NC1=NC2(CO1)c1cnc(Cl)cc1Oc1ccc(-c3cncnc3)cc12 (centres unmarked) [compound 852]
- IC50 (BACE1 [1]; [7]): 1 to 5 µM
- IC50 (BACE1 [2]; [8]): > 5 µM

Compound: NC1=NC2(CO1)c1cc(-c3cccnc3)ccc1Oc1ncc(-c3cccnc3)cc12 (centres unmarked) [Example 113, 3,7-di-3-pyridinylspiro[chromeno[2,3-b]pyridine-5,4′-[1,3]oxazol]-2′-amine]
- IC50 (BACE1 [1]; [3]): < 0.1 µM
- IC50 (BACE1 [2]; [4]): < 0.1 µM

Results, then the molecule that gave them:

- IC50 (BACE1 [1]; [3]): 0.1 to 1 µM
- IC50 (BACE1 [2]; [4]): 0.1 to 1 µM
Compound: CC(C)(C)COc1ccc2c(c1)[C@]1(COC(N)=N1)c1cc(C(=O)N3CCCC3)ccc1O2 [218b]

- IC50 (BACE1 [1]; read-out: BACE1 FRET assay): < 0.1 µM
- IC50 (BACE1 [2]; read-out: HEK cell assay): < 0.1 µM
Compound: CCCOc1cc2c(cc1F)Oc1ccc(-c3cccnc3)cc1[C@@]21COC(N)=N1 [compound 938]

- IC50 (BACE1 [1]; [5]): 0.1 to 1 µM
- IC50 (BACE1 [2]; [6]): 1 to 5 µM
Compound: COc1ccc(-c2ccc3c(c2)[C@@]2(COC(N)=N2)c2cc(OCC(C)(C)C)ccc2O3)cn1 [Example 87, (4S)-2′-(2,2-dimethylpropoxy)-7′-(6-methoxy-3-pyridinyl)spiro[1,3-oxazole-4,9′-xanthen]-2-amine]

- IC50 (BACE1 [1]; read-out: BACE1 FRET assay): 1 to 5 µM
- IC50 (BACE1 [2]; read-out: HEK cell assay): 1 to 5 µM
Compound: NC1=N[C@]2(CO1)c1cc(-c3ccc(F)cc3)ccc1Oc1ncc(C3=CCOCC3)cc12 [compound 691]

- IC50 (BACE1 [1]; [3]): > 5 µM
- IC50 (BACE1 [2]; [4]): 1 to 5 µM
Compound: COc1ccc2c(c1)[C@@]1(COC(N)=N1)c1cc(C(=O)N3CCCC3)ccc1O2 [Example 127, (R)-(2-amino-2′-methoxy-5H-spiro[oxazole-4,9′-xanthene]-7′-yl)(pyrrolidin-1-yl)methanone]

- IC50 (BACE1 [1]; read-out: BACE1 FRET assay): < 0.1 µM
- IC50 (BACE1 [2]; HEK cells, read-out: HEK cell assay): < 0.1 µM
Compound: NC1=N[C@@]2(CO1)c1cc(-c3ccc(F)nc3)ccc1Oc1cnc(C3=CCOCC3)cc12 [compound 431, (5S)-3-(3,6-dihydro-2H-pyran-4-yl)-7-(6-fluoro-3-pyridinyl)spiro[chromeno[2,3-c]pyridine-5,4′-[1,3]oxazol]-2′-amine]

- IC50 (BACE1 [1]; [7]): 1 to 5 µM
- IC50 (BACE1 [2]; [8]): 1 to 5 µM
Compound: NC1=NC2(CO1)c1cnccc1Oc1ccc(-c3cccnc3)cc12 (centres unmarked) [compound 648]

- IC50 (BACE1 [1]; [5]): 0.1 to 1 µM and < 0.1 µM
- IC50 (BACE1 [2]; [6]): 0.1 to 1 µM and < 0.1 µM
Compound: CC(C)(C)CC(=O)c1ccc2c(c1)[C@]1(COC(N)=N1)c1cc(-c3cncnc3)ccc1O2 [compound 48, 1-((4S)-2-amino-7′-(5-pyrimidinyl)spiro[1,3-oxazole-4,9′-xanthen]-2′-yl)-3,3-dimethyl-1-butanone]

- IC50 (BACE1 [1]; [7]): 1 to 5 µM
- IC50 (BACE1 [2]; [8]): > 5 µM
Compound: COc1ccc2c(c1)[C@]1(COC(N)=N1)c1cc(C#CC(C)(C)OC)cnc1O2 [compound 901]

- IC50 (BACE1 [1]; read-out: BACE1 FRET assay): 0.1 to 1 µM
- IC50 (BACE1 [2]; read-out: HEK cell assay): 1 to 5 µM
Compound: CC(C)(C)COc1ccc2c(c1)[C@]1(COC(N)=N1)c1cc(-c3ccc(=O)[nH]c3)ccc1O2 [compound 980]

- IC50 (BACE1 [1]; read-out: BACE1 FRET assay): < 0.1 µM
- IC50 (BACE1 [2]; read-out: HEK cell assay): < 0.1 µM
Compound: CC1(C)CC(c2ccc3c(c2)[C@]2(COC(N)=N2)c2cc(-c4cncnc4)ccc2O3)=CCO1 [compound 688]
